Results on twelve molecules are retold here after ChEMBL document CHEMBL1125975, “Enzymic and nonenzymic lipid peroxidation: inhibition by substituted phenoxazines” (Bioorg Med Chem Lett, 1991).

This assay is filed under the species Oryctolagus cuniculus. Put plainly: Minimum concentration of compound was evaluated for inhibiting iron-dependent lipid peroxidation of rabbit brain homogenate in vitro. The assay is classed as functional.

Converted amounts (≈) assume the structure as drawn.

On to `COc1ccc2c(c1C(=O)O)Nc1ccccc1O2`, for which the MIC (as a rule, the least concentration at which growth counts as inhibited) amounted to 9.1 µM (≈ 2.34 µg/mL).
In turn, `CN(O)C(=O)/C=C/c1ccc2c(c1)Nc1ccccc1O2` returned an MIC of 0.35 µM (≈ 0.0988 µg/mL).
With `CN(O)C(=O)c1ccc2c(c1)Nc1ccccc1O2`, the lowest concentration to inhibit growth (MIC) was 0.65 µM (≈ 0.167 µg/mL).
Next, `O=C(NO)c1ccc2c(c1)Nc1ccccc1O2`: 0.41 µM (≈ 0.0993 µg/mL); `COc1ccc2c(c1C(=O)NO)Nc1ccccc1O2`: 3.7 µM (≈ 1.01 µg/mL).
As for `COC(=O)c1ccc2c(c1)Nc1ccccc1O2`, the figure is 0.22 µM (≈ 0.0531 µg/mL); as for `O=C(O)c1ccc2c(c1)Nc1ccccc1O2`, 0.44 µM (≈ 0.1 µg/mL).
For `O=C(O)/C=C/c1ccc2c(c1)Nc1ccccc1O2`, the MIC turned out to be 0.12 µM (≈ 0.0304 µg/mL).
As for `CCOC(=O)/C=C/c1ccc2c(c1)Nc1ccccc1O2`, the figure is 0.19 µM (≈ 0.0534 µg/mL); as for `COC(=O)c1cccc2c1Nc1ccccc1O2`, 4.2 µM (≈ 1.01 µg/mL).
The molecule `O=C(O)c1cccc2c1Nc1ccccc1O2` returned an MIC of 4.4 µM (≈ 1 µg/mL).
As for `c1ccc2c(c1)Nc1ccccc1O2` [PHENOXAZINE], the figure is 0.055 µM (≈ 0.0101 µg/mL).
